How the values were obtained:
Phytophthora infestans = assay: whole plant or invertebrate; format: in vivo; details: in Solanum lycopersicum, 96 h, read-out: Determination of control effect (preventive value)
[1] = system: Pseudoperonospora cubensis; assay: Test of examining control effect on Pseudoperonospora cubensis (potted cucumber plants); format: in vivo; details: 96 h, 10% wettable powder adjusted to 125 ppm, 15 ml/pot sprayed on potted cucumber plants one day before spray inoculation, assessed after 1 day wet chamber and 3 days greenhouse, read-out: Determination of control effect (preventive value) on Pseudoperonospora cubensis
Outline: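 Preventive treatment: 125 ppm sample agent solution (from 10% wettable powder) sprayed at 15 ml/pot on 2.5-leaf Sagamihanjiro cucumbers, then P. cubensis inoculated next day at 1.0×10^4 cells/ml. Incubation was 1 day wet at 21° C plus 3 days greenhouse. Lesion area rate compared with untreated gives preventive value (≥60% high).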

Sphaerotheca fuliginea = assay: Test of examining control effect on Sphaerotheca fuliginea (potted cucumber plants); format: in vivo; details: Podosphaera fuliginea, 336 h; 10% wettable powder adjusted to 125 ppm, 15 ml/pot sprayed on potted cucumber plants one day before spray inoculation; assessed after 14 days in greenhouse; read-out: Determination of control effect (preventive value) on Sphaerotheca fuliginea
Outline: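 Control effect rated high at preventive value 60–100% and low below 60%, from lesion area relative to untreated plants 14 days after spray inoculation with S. fuliginea (1.0×10^5 cells/ml). Compound applied at 125 ppm as wettable-powder spray one day before inoculation, on 2nd-leaf-stage Sagamihanjiro cucumber.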

Tetranychus urticae eggs = assay: Test of examining effect on Tetranychus urticae eggs (ovicidal rate); format: in vivo; details: 144 h, 0.4 ml sprayed, unhatched eggs counted six days later, read-out: Determination (ovicidal rate)
Experimental: Thereafter, the released female adults were removed. […] Six days later, the number of unhatched eggs was counted, and an ovicidal rate was calculated.

Row | SMILES | pest or weed control at 125 ppm (Phytophthora infestans) | pest or weed control at 125 µg/mL [1] | pest or weed control at 125 µg/mL (Sphaerotheca fuliginea) | pest or weed control at 250 ppm (Tetranychus urticae eggs) | melting point
1 | COc1ccc(C#CCCNc2ncnc3sccc23)cc1OC [compound 24] | 0 to 60% | 60 to 100% | 60 to 100% | 60 to 80% | 182 to 184 °C
2 | COC(=O)c1cccc(C#CCCNc2ncnc3sccc23)c1 [compound 30] | 0 to 60% | 60 to 100% | 0 to 60% | 60 to 80% | 163 to 166 °C
3 | Cc1ccccc1C#CCC(C)Nc1ncnc2sccc12 (centres unmarked) [compound 239] | 60 to 100% | 60 to 100% | 60 to 100% | 80 to 95% | 
4 | CC(CC#Cc1ccc(C(C)C)cc1)Nc1ncnc2sccc12 (centres unmarked) [compound 241] | 60 to 100% | 60 to 100% | 60 to 100% | ≥ 95% | 
5 | CC(CC#Cc1ccc(Cl)cc1CO)Nc1ncnc2sccc12 (centres unmarked) [compound 245] | 60 to 100% | 60 to 100% | 60 to 100% | 80 to 95% | 
6 | Cc1cc(F)ccc1C#CCC(C)Nc1ncnc2sccc12 (centres unmarked) [compound 246] | 60 to 100% | 60 to 100% | 60 to 100% | 80 to 95% | 
7 | CC(CC#Cc1ccc(F)cc1Cl)Nc1ncnc2sccc12 (centres unmarked) [compound 247] | 60 to 100% | 60 to 100% | 60 to 100% | 60 to 80% | 
8 | CC(CC#Cc1cc(F)ccc1C(F)(F)F)Nc1ncnc2sccc12 (centres unmarked) [compound 248] | 0 to 60% | 60 to 100% | 60 to 100% | 60 to 80% | 
9 | CC(CC#Cc1ccc(F)cc1C(F)(F)F)Nc1ncnc2sccc12 (centres unmarked) [compound 249] | 60 to 100% | 60 to 100% | 60 to 100% | ≥ 95% | 
10 | CC(CC#Cc1ccc(S(F)(F)(F)(F)F)cc1Cl)Nc1ncnc2sccc12 (centres unmarked) [compound 253] | 0 to 60% | 60 to 100% | 60 to 100% | 60 to 80% | 
11 | CC(CC#Cc1ccc(C(F)(F)F)cc1Cl)Nc1ncnc2sccc12 (centres unmarked) [compound 257] | 60 to 100% | 60 to 100% | 60 to 100% | 80 to 95% | 
12 | CC(CC#Cc1ccc(Cl)cc1C(F)(F)F)Nc1ncnc2sccc12 (centres unmarked) [compound 258] | 60 to 100% | 60 to 100% | 60 to 100% | 60 to 80% | 
13 | Cc1ccc(C#CCC(C)Nc2ncnc3sccc23)c(C)c1 (centres unmarked) [compound 259] | 60 to 100% | 60 to 100% | 60 to 100% | ≥ 95% | 
14 | CCC(CC#Cc1ccccc1)Nc1ncnc2sccc12 (centres unmarked) [compound 267] | 0 to 60% | 60 to 100% | 60 to 100% | 60 to 80% | 
15 | CCCCC(CC#Cc1ccccc1)Nc1ncnc2sccc12 (centres unmarked) [compound 269] | 0 to 60% | 60 to 100% | 60 to 100% | 60 to 80% | 
16 | CC(CC#Cc1ccc(S(F)(F)(F)(F)F)cc1)Nc1ncnc2ccccc12 (centres unmarked) [compound 277] | 0 to 60% | 60 to 100% | 60 to 100% | ≥ 95% | 
17 | CC(CC#Cc1ccc(S(F)(F)(F)(F)F)cc1Cl)Nc1ncnc2ccccc12 (centres unmarked) [compound 283] | 60 to 100% | 60 to 100% | 60 to 100% | 60 to 80% | 
18 | CC(CC#Cc1ccc(Cl)cc1C(F)(F)F)Nc1ncnc2ccccc12 (centres unmarked) [compound 285] | 60 to 100% | 60 to 100% | 60 to 100% | ≥ 95% | 
19 | CC(CC#Cc1ccc(F)cc1C(F)(F)F)Nc1ncnc2ccccc12 (centres unmarked) [compound 286] | 60 to 100% | 60 to 100% | 60 to 100% | 80 to 95% | 
20 | CC(CC#Cc1ccc(C(F)(F)F)cc1F)Nc1ncnc2ccccc12 (centres unmarked) [compound 288] | 0 to 60% | 60 to 100% | 60 to 100% | ≥ 95% | 
21 | CC(CC#Cc1ccc(C(C)C)cc1C(F)(F)F)Nc1ncnc2ccccc12 (centres unmarked) [compound 289] | 0 to 60% | 60 to 100% | 60 to 100% | ≥ 95% | 
22 | CC(CC#Cc1ccc(Cl)cc1C(F)(F)F)Nc1ncnc2c(F)cccc12 (centres unmarked) [compound 348] | 0 to 60% | 60 to 100% | 60 to 100% | 80 to 95% | 
23 | CC(CC#Cc1ccc(Cl)cc1C(F)(F)F)Nc1ncnc2cccc(Cl)c12 (centres unmarked) [compound 350] | 0 to 60% | 60 to 100% | 60 to 100% | ≥ 95% | 
24 | Fc1cc2ncnc(NCCC#Cc3ccc(Cl)cc3C(F)(F)F)c2cc1F [compound 355] | 60 to 100% | 60 to 100% | 60 to 100% | ≥ 95% | 
25 | Cc1c(Cl)ncnc1NCCC#Cc1ccccc1 [compound 356] | 60 to 100% | 60 to 100% | 60 to 100% | 80 to 95% | 
26 | CC(F)c1ncnc(NCCC#Cc2ccccc2)c1Cl (centres unmarked) [compound 376] | 60 to 100% | 60 to 100% | 60 to 100% | ≥ 95% | 
27 | CC(F)c1ncnc(NCCC#Cc2ccc(Cl)cc2C(F)(F)F)c1Cl (centres unmarked) [compound 377] | 0 to 60% | 60 to 100% | 60 to 100% | ≥ 95% | 
28 | CC(CC#Cc1ccc(Cl)cc1C(F)(F)F)Nc1ncnc(C(C)F)c1Cl (centres unmarked) [compound 382] | 0 to 60% | 60 to 100% | 60 to 100% | ≥ 95% | 
29 | CC(CC#Cc1ccc(Cl)cc1C(F)(F)F)Nc1ncnc2ncccc12 (centres unmarked) [compound 384] | 0 to 60% | 60 to 100% | 60 to 100% | ≥ 95% | 
30 | Cc1ncnc(NC(C)CC#Cc2ccc(Cl)cc2C(F)(F)F)c1Cl (centres unmarked) [compound 385] | 0 to 60% | 60 to 100% | 60 to 100% | ≥ 95% | 

Reference: patent publication US8586505B2 (SDS Biotech K. K., priority 2009, dated 2013)
